Experimental findings from paper PMC12584615, “Degradation of 2,4-D by plant growth-promoting Cupriavidus sp. DSPFs: role in mitigating herbicide toxicity in soil and enhancing crop production” (Microbiology Spectrum, 2025) are described below.

Assay [1] deals with 2,4-dichlorophenol-6-monooxygenase from Cupriavidus sp. strain DSPFs (Cupriavidus sp. strain DSPFs). Briefly: SEC; ENrich SEC 650 column (24 mL) in 50 mM potassium phosphate buffer pH 7.5, 4°C; calibrated with mass markers from 12.4 to 669 kDa; native mass from log(mol mass) versus Ve/V0, compared with the subunit mass from SDS-PAGE. For orientation: Size exclusion chromatography separates by hydrodynamic size, large species first.

Assay [2] has as its system T1, 2,4-dichlorophenol-6-monooxygenase (24DCPM).
T1 construct: gene tfdB; homotetramer ~255 kDa, subunit ~65 kDa
Briefly: spectrophotometric NAD(P)H consumption at […] nm, uncompetitive substrate inhibition fit. It counts as biochemical, Cupriavidus sp. DSPFs. As to conditions: 200 µM NADH; phosphate buffer 50 mM pH 7.5; 6.25 µM FAD; read-out: Km (μM) / I^a.

For assay [3], the target named is T1, 2,4-dichlorophenol-6-monooxygenase (24DCPM). The description is as above. It counts as biochemical, Cupriavidus sp. DSPFs. As to conditions: substrate inhibition constant; 200 µM NADH; phosphate buffer 50 mM pH 7.5; 6.25 µM FAD.
For assay [4], the system named is T1, 2,4-dichlorophenol-6-monooxygenase (24DCPM). Briefly: spectrophotometric NAD(P)H consumption at […] nm, Michaelis-Menten fit. It counts as biochemical, Cupriavidus sp. DSPFs. As to conditions: 50 µM 2,4-dichlorophenol; phosphate buffer 50 mM pH 7.5; 6.25 µM FAD; read-out: Km (μM) / I^a.

As to “2,4-dichlorophenol-6-monooxygenase from Cupriavidus sp. strain DSPFs (enzyme)”, in assay [1], the stoichiometry N (in general, the number of molecules, sites or subunits per partner or assembly) stood at 4.
`Oc1ccc(Cl)cc1Cl` [2,4-DCP, 2,4-dichlorophenol]: the Km in assay [2] turned out to be 3.1 ± 0.8 µM. Besides, the “Ki (μM) / I” value in assay [3] amounted to 374 ± 80 µM.
On to `NC(=O)C1=CN([C@@H]2O[C@H](COP(=O)(O)OP(=O)(O)OC[C@H]3O[C@@H](n4cnc5c(N)ncnc54)[C@H](O)[C@@H]3O)[C@@H](O)[C@H]2O)C=CC1` [NADH], for which the Km in assay [4] is 205 ± 47 µM.
In the case of `NC(=O)C1=CN([C@@H]2O[C@H](COP(=O)(O)OP(=O)(O)OC[C@H]3O[C@@H](n4cnc5c(N)ncnc54)[C@H](OP(=O)(O)O)[C@@H]3O)[C@@H](O)[C@H]2O)C=CC1` [NADPH], the Km in assay [4] turned out to be 46.8 ± 6 µM.
